{"source": "patent US7214512B2", "about": "“Genomic mammary Amyloid a sequence” (The Board of Regents of the University of Nebraska, priority 1999, dated 2007)", "key": {"MUC3 mRNA": {"system": "MUC3 mRNA", "test": "MUC3 mRNA expression in intestinal epithelial cell culture assay", "assay_type": "cell-based, human", "settings": "for MUC3 mRNA stimulation versus control (in words) / MUC3 mRNA/28s RNA ratio, Mean: 30 minutes at 37° C. at 50 μg/ml; for MUC3 mRNA stimulation versus control (in words): p<0.008; for MUC3 mRNA/28s RNA ratio, Mean: peptide comparison, Control = 100.000", "source_text": "Different mucin genes have been identified and to date, twelve human mucin genes have been identified. However, MUC3 mucin is the predominant intestinal mucin. It has previously been shown that the MUC3 mucins are effective in preventing the adherence of enteropathogenic Escherichia coli (EPEC) to intestinal epithelial cells. […] It is also well known that breast-feeding infants are far less susceptible to infectious diarrhea than formula fed infants. There are a number of theories why this is so, but it is hypothesized that milk-associated amyloid (colostrum SAA) may be an important inducer of MUC3 gene expression. Applicant has evaluated MUC3 mRNA expression using an in vitro human cell culture assay system. In this system, intestinal cells incubated with the N-terminal peptide sequence of colostrum SAA have shown increased MUC3 mRNA expression as compared to control cells grown without the addition of colostrum SAA to the cell culture medium. To further explore this finding, Applicant has evaluated the functional specificity of the N-terminal peptide sequence of colostrum SAA by evaluation of MUC3 expression in the same in vitro assay using colostrum SAA N-terminal peptide sequences that have been randomly scrambled and a colostrum SAA peptide sequence downstream of the N-terminal sequence. If the expression of MUC3 is increased then intestinal cells grown in the presence of colostrum SAA should have a greater capacity to inhibit adherence of bacterial pathogens. This will be studied using EPEC in an in vitro assay system pre-incubated with colostrum SAA in the cell culture medium. Enteropathogenic E. coli are non-invasive, non-toxin producing pathogens that have been recognized as a significant cause of diarrhea in third world countries and in day care settings in developed countries. Future studies will evaluate the benefits of colostrum SAA in in vivo studies as well as characterized animal equivalent to human EPEC. Colostrum associated SAA provides a means to naturally upregulate the innate protective mechanisms of the human intestine and would provide a novel form of therapy to a common problem that occurs all too often in the third world leads to death of infants and in the developed world countries and leads to significant morbidity and cost. Furthermore, prevention of intestinal infections for traveler's or those having to live in conditions with altered sanitary practices would also reduce morbidity. Thus, this therapy offers an effective, natural, non-drug/chemical therapy.\n(§1) These four peptides were used in a cell culture assay designed to evaluate them for their properties of inducing mucin (MUC) mRNA production, either MUC3 or MUC2 according to the methods described by Mack et al. (Biochem. Biophys. Res. Commun. 199: 1012–1018, 1994 and Am J Physiol. Vol. 4, part 1, pg. G841–950, 1999).\nN-Terminal Peptide Titration and MUC3 mRNA Expression. Intestinal epithelial cells, Mack et al. 1994, 1999, were exposed to the N-terminal 10 amino acid bovine colostrum-SAA peptide (SEQ ID NO:30) at various concentrations for 30 minutes incubation at […]. The cells were incubated an additional hour following replacement of the test medium with fresh medium without peptide and then the total cellular niRNA isolated and analyzed for MUC3 specific mRNA. […] The optimum concentration was 50 μg/ml medium (see FIG. 7).\nMUC3 Stimulation. MUC3 stimulating activity of the N-terminal 10 amino acid bovine colostrum-SAA peptide was compared to the activity of the “Limited Scramble”, the “Total Scramble” and “C-Terminal peptides”. Optimum time and temperature of incubation and concentration of peptides was for 30 minutes at 37° C. at 50 μg/ml respectively."}, "MUC2 mRNA": {"system": "MUC2 mRNA", "test": "MUC2 mRNA expression in intestinal epithelial cells cultured under conditions favoring MUC2", "assay_type": "cell-based, human", "settings": "for MUC2 mRNA/28s RNA ratio, Mean: peptide comparison, conditions optimized for MUC3 stimulation, Control = 100.000", "source_text": "as §1\nMUC2 mRNA Stimulation. To address whether the N-Terminal 10 amino acid bovine colostrum-SAA peptide would stimulate mRNA synthesis for MUC2 production, intestinal epithelial cells were cultured under conditions favoring MUC2 expression rather than MUC3. All peptides were used at concentrations and conditions that were previously optimized for MUC3 stimulation. […] Additionally, conditions were changed to 2× the optimum MUC3 incubation time (1 hr). […] The evidence strongly indicates specificity of function in stimulating the production of a mucin produced mainly in the small intestine (MUC3) over one produced primarily in the large intestine (MUC2) (see FIG. 9)."}, "[1]": {"system": "Bovine MAC-T mammary gland epithelial cells", "test": "Colostrum-SAA production by MAC-T cells stimulated with prolactin (ELISA)", "assay_type": "cell-based", "experimental": "Bovine MAC-T mammary gland epithelial cells were obtained from ATCC (CRL-10274) and cultured according to recommended conditions (Turner, J D and Huynh H. Immortalized bovine mammary epithelial cell line. U.S. Pat. No. 5,227,301 dated Jul. 13, 1993). MAC-T cells were cultured on Dulbecco's Modified Eagles Media (DMEM) supplemented with 10% Fetal Calf Serum (FCS), 5 μg/ml insulin, 1 μg/ml hydrocortisone and fungizone. Cells were incubated at 37° C. with 5% CO2. For colostrum-SAA production the cells were seeded onto type I Collagen coated plates. After 14 hours of incubation, the cells were washed twice with Dulbecco's phosphate buffered saline (DPBS) and incubated in media (DMEM, 5 μg/ml insulin, 1 μg/ml hydrocortisone and 2.5% FCS) supplemented with prolactin from sheep pituitary gland (5 μg/ml) for the stimulation of colostrum-SAA production. Approximately one half of the media was replaced daily with fresh prolactin supplemented media. Standard ELISA for the quantitation of SAA (FIG. 3) was used to assay aliquots of the growth media collected on the different days for the presence of colostrum-SAA.\nCells were kept in culture for 41 days in media supplemented with prolactin. Levels of colostrum-SAA production reached a maximum of almost 3000 ng/ml."}, "[2]": {"test": "Isoelectric focusing (IEF) and 2-D gel of SAA preparations", "assay_type": "physicochemical", "settings": "IEF on IPG strips, anti-SAA monoclonal antibody stain", "source_text": "Isoelectric Focusing (IEF) of SAA from serum, colostrum and cell culture fluid. The PROTEIN IEF Cell (BioRad) was used for the isoelectric focusing of the various SAA preparations. Ready Strip IPG Strips (BioRad Laboratories) with a pH range of 3–10 were used for the IEF. The second dimension (2-D) of the protein analysis was done by subjecting the IPG strips to 12% SDS-PAGE gel and electroblotting onto a PVDF membrane. The strips and blots were done in duplicate so that one of the blots could be stained with a protein stain, Coomassie Brilliant Blue, (CBB) and the other stained with the anti-SAA monoclonal antibody for the identification of the SAA protein isoforms. The samples also contained internal IEF standards (BioRad Laboratories) so that isoelectric point (pI) of each SAA isoforms could be determined. By comparing the antibody stained spots to the spots of the standards stained with CBB the apparent pI of the SAA isoforms could be determined. […]\nThe proteins subjected to the IEF and 2-D analysis were either affinity purified as described for the cell culture fluid or, in the case of the serum only semi-purified by hydrophobic chromatography. SAA is a highly hydrophobic molecule and will bind readily to Octyl Sepharose beads and then under the appropriate conditions can be eluted off the matrix. […]"}}, "note": "Where “and” joins values, the source holds several entries; their conditions need not be identical. Equal entries are not always repeated.", "data": [{"molecule": "MWGLTKFEAG (limited scramble for experiment) [N-terminal peptide in which the four TFLK amino acids were scrambled in their order, reference compound]", "values": [{"measurement": "MUC3 mRNA stimulation versus control (in words)", "setting": "MUC3 mRNA", "value": "lack of stimulation"}, {"measurement": "MUC3 mRNA/28s RNA ratio, Mean", "setting": "MUC3 mRNA", "value": 95.000}, {"measurement": "MUC2 mRNA/28s RNA ratio, Mean", "setting": "MUC2 mRNA", "value": 87.167}]}, {"molecule": "MWGTFLKEAG (N-terminal region of bovine colostrum SAA) [10 amino acid N-terminal portion of mature bovine colostrum-SAA containing the conserved TFLK]", "values": [{"measurement": "time in which intestinal mucin genes are turned on", "setting": "MUC3 mRNA", "value": "≤ 30", "unit": "min"}, {"measurement": "MUC3 mRNA stimulation versus control (in words)", "setting": "MUC3 mRNA", "value": "stimulated MUC3 mRNA statistically significantly over the control values"}, {"measurement": "optimum concentration for MUC3 mRNA stimulation", "setting": "MUC3 mRNA; 30 minutes incubation", "value": 50, "unit": "μg/ml medium"}, {"measurement": "MUC3 mRNA/28s RNA ratio, Mean", "setting": "MUC3 mRNA", "value": 174.833}, {"measurement": "MUC2 mRNA increase over control (in words)", "setting": "MUC2 mRNA; 100 and 500 μg/ml, incubation time 1 hr", "value": "None of these changes resulted in MUC2 mRNA increase over control values"}, {"measurement": "MUC2 mRNA stimulation versus control (in words)", "setting": "MUC2 mRNA; concentrations and conditions optimized for MUC3 stimulation", "value": "the values were not significantly different"}, {"measurement": "MUC2 mRNA/28s RNA ratio, Mean", "setting": "MUC2 mRNA", "value": 101.167}]}, {"molecule": "GKFAWEGMTL (randomized experimental control sequence) [Total Scramble, control peptide with the amino acids of the entire N-Terminal peptide in random order, reference compound]", "values": [{"measurement": "MUC3 mRNA/28s RNA ratio, Mean", "setting": "MUC3 mRNA", "value": 109.333}, {"measurement": "MUC2 mRNA/28s RNA ratio, Mean", "setting": "MUC2 mRNA", "value": 65.833}]}, {"molecule": "DAAQRGPQQA (peptide of residues in C-terminal region of bovine SAA used as experimental control) [control 10 amino acid peptide, first 7 residues from the C-terminal region of bovine SAA, reference compound]", "values": [{"measurement": "MUC3 mRNA/28s RNA ratio, Mean", "setting": "MUC3 mRNA", "value": 111.333}, {"measurement": "MUC2 mRNA/28s RNA ratio, Mean", "setting": "MUC2 mRNA", "value": 67.500}]}, {"molecule": "prolactin: prolactin from sheep pituitary gland, used to stimulate colostrum-SAA production (protein, UniProt P01240 31-229, looked up) Prolactin: TPVCPNGPGNCQVSLRDLFDRAVMVSHYIHNLSSEMFNEFDKRYAQGKGFITMALNSCHTSSLPTPEDKEQAQQTHHEVLMSLILGLLRSWNDPLYHLVTEVRGMKGVPDAILSRAIEIEEENKRLLEGMEMIFGQVIPGAKETEPYPVWSGLPSLQTKDEDARHSAFYNLLHCLRRDSSKIDTYLKLLNCRIIYNNNC", "values": [{"measurement": "maximum level of colostrum-SAA production", "setting": "[1]; prolactin 5 μg/ml in media, 41 days in culture", "value": "~3000", "unit": "ng/mL"}, {"measurement": "detection of colostrum-SAA in media (in words)", "setting": "[1]; prolactin stimulation, eight days", "value": "Measurable quantities of colostrum-SAA could be detected by day two"}]}, {"molecule": "colostrum-SAA: unique isoform of serum amyloid A found in bovine colostrum and MAC-T cell culture fluid (protein) QRWGTFLKEAGQGAKDMWRAYQDMKEANYRGADKYFHARGNYDAARRGPGGAWAAKVISNARETIQGITDPLFKGMTRDQVREDSKADQFANEWGRSGKDPNHFRPAGLPDKY", "values": [{"measurement": "apparent pI", "setting": "[2]; listed as SAA purified from the culture fluid of MAC-T cells stimulated with LPS", "value": "9.4–9.6"}]}, {"molecule": "SAA from the serum: SAA semi-purified from bovine serum, three isoforms staining with anti-SAA monoclonal antibody (protein) QWMSFFGEAYEGAKDMWRAYSDMREANYKGADKYFHARGNYDAAQRGPGGAWAAKVISDARENIQRFTDPLFKGTTSGQGQEDSRADQAANEWGRSGKDPNHFRPAGLPDKY", "values": [{"measurement": "apparent pI", "setting": "[2]", "value": "~7.0 and ~5.8 and ~5.5"}]}]}
